Data from patent US7973217B2, “Stem-regulated, plant defense promoter and uses thereof in tissue-specific expression in monocots” (The Texas A&M University System, priority 2003, dated 2011).

Key:
Type in all cases: in vivo
OMT = experiment: cDNA microarray of OMT expression in sugarcane plants sprayed with defense-inducing agents; conditions: treated (Cy5) v. untreated control (Cy3), normalized
Protocol: The 251 cDNA clones used for microarray analysis in Example 1 were further used to assess the effects of defense-inducing agents on the expression of the stem-specific genes.
Total RNA was extracted from wild type sugarcane plants (3 months-old) that were sprayed with the defense-inducing agents jasmonic acid (JA) (25µM in 0.05.percent.Tween 20), methyl-jasmonate (MeJA) (200µM in 0.1.percent.ethanol and 0.05.percent.Tween 20) or salicylic acid (SA) (5 mM in 0.05.percent.Tween 20) for two time periods, 24 and 48 hours. The microarray including 251 cDNAs was probed with fluorescently labeled cDNAs synthesized from 1µg of total amplified RNA. One cDNA probe (e.g. RNA from plant treated with a defense-inducing agent) is labeled with one dye (Cy5), and the second (e.g. RNA from untreated control plant) with another dye (Cy3)
The normalized ratio of Cy5 v.

GUS [1] = experiment: Histochemical transient GUS expression in particle bombarded sorghum stem tissue; conditions: versus Ubiquitin 1 promoter
From the text: (§1) FIG. 14 is a photomicrograph of particle bombarded maize and sorghum stem tissues showing histochemical localization of transient GUS expression driven by the stem-regulated OMT promoter or the constitutive maize ubiquitinl promoter.

GUS [2] = experiment: Histochemical transient GUS expression in particle bombarded maize stem tissue; conditions: versus Ubiquitin 1 promoter
From the text: as §1

| Compound | Cy5/Cy3 Ratios (Upregulation) for OMT (OMT; 24 hours after spraying) | Cy5/Cy3 Ratios (Upregulation) for OMT (OMT; 48 hours after spraying) | Transient expression of GUS in stem tissue (GUS [1]) | Transient expression of GUS in stem tissue (GUS [2]) |
| --- | --- | --- | --- | --- |
| CC/C=C\C[C@H]1C(=O)CC[C@@H]1CC(=O)O [JA, jasmonic acid] | 0.99 | 2.00 |  |  |
| CC/C=C\CC1C(=O)CCC1CC(=O)OC (stereo not shown) [MeJA, methyl-jasmonate] | 0.70 | 0.97 |  |  |
| O=C(O)c1ccccc1O [SA, salicylic acid] |  | 2.00 |  |  |
| OMT promoter: sugarcane o-methyl transferase gene promoter, SEQ ID NO:1, directing stem-regulated, defense-inducible expression |  |  | comparable to that obtained with the Ubiquitin 1 promoter | comparable to that obtained with the Ubiquitin 1 promoter |
